Measurements reported in PMC11167338, “Exploring the impact of trifluoromethyl (–CF3) functional group on the anti-cancer activity of isoxazole-based molecules: design, synthesis, biological evaluation and molecular docking analysis” (RSC Advances, 2024).

Key:
Type in all cases: cell-based, human
MCF-7 cells [1] = test: Nuclear staining assay (DAPI and AO); details: MCF-7, IC50, 48 hours, compared to control and BG-45
Procedure: A nuclear staining assay was done using DAPI and AO as staining dyes to evaluate the phenomena of apoptosis in cancer cells under a laser scanning confocal microscope (LSCM). […] The fluorescence pattern in AO staining changed from green (normal cellular DNA) to orange (nicked cellular DNA).
To measure the degree of cancer cell disintegration, a nuclear staining experiment was performed in MCF-7 cells using the lead compound 2g and the reference compound BG-45. […] The 12-well plate was incubated for 48 hours after treatment. The cells were fixed with 4% paraformaldehyde and then stained with DAPI and acridine orange. The degree of nuclear staining was examined using a Laser Scanning Confocal Microscope (LSCM) DMI8 (Leica Microsystems, Germany) at 63× magnification. Image J was used to calculate the percentage apoptosis. One-way ANOVA was used to determine significance, and the graph was plotted in GraphPad Prism™ version 8.0.1.

MCF-7 cells [2] = test: Annexin-V/FITC-PI apoptosis assay (flow cytometry); details: MCF-7, 48 h, at in vitro IC50
Procedure: Several studies have reported that anticancer drug molecules employ their cytotoxicity induced cell death via apoptotic pathways. […] These findings imply that the programmed cell death mechanism generated by the lead compound 2g causes considerable apoptosis in cancer cells.
In MCF-7 cells, an apoptosis assay was done using a TACs/Annexin V kit from Biolegend, USA. MCF-7 cells were seeded with a density of 5.0 × 10^4 cells per well in a flat-bottomed 12-well plate and allowed overnight for attachment. Following media aspiration, 48 hours of treatment with compound 2g and BG-45 at their in vitro IC50 values in MCF-7 cells were performed in triplicate. The cells were then trypsinized after being rinsed twice with ice-cold PBS. The trypsinized cells were then collected, centrifuged, and the obtained cell pellet was washed with ice-cold PBS before being resuspended in 100 μL of freshly prepared Annexin V reagent, which included 10 μL of 10× binding buffer, 1 μL of FITC, 10 μL of PI, and made up to 100 μL with double distilled water. Following a 30 minutes dark incubation period, these samples were diluted to 500 μL using 400 μL of 1× binding buffer. Following incubation, the samples were examined using flow cytometry (BDAria™ III, BD biosciences).

MCF-7 = test: MTT anti-proliferative assay on MCF-7; details: for IC50: MTT, 48 hours treatment, mean ± SD (n = 2)
Procedure: All synthesized molecules were tested for their anticancer activity using the MTT assay protocol against the murine mammary carcinoma cell line (4T1), the human breast cancer (MCF-7), and the prostatic small cell carcinoma (PC-3). These compounds were then assessed for their IC50 determination at various concentrations. According to this finding, all synthesized compounds have the ability to inhibit the proliferation of a variety of cancer cell lines. […] It is more biased for MCF-7 cells over other cancer cells tested. Further, we contemplated conducting additional research to assess their anti-cancer effectiveness and mechanism (Fig. 3).
The mouse triple-negative breast cancer cell line (4T1), a human luminal A breast cancer cell line (MCF-7), a human prostate cancer cell line (PC-3), and a normal human embryonic kidney cell line (HEK-293) were procured from the National Center for Cell Science (NCCS, Pune, India). Dulbecco's Modified Eagle Medium (DMEM) (Himedia Laboratories Pvt Ltd, Mumbai, India) was used to cultivate MCF-7, 4T1, PC-3, and HEK-293 cells. All the mentioned cell lines were cultured in Dulbecco's Modified Eagle Medium (DMEM) supplemented with 10% heat-inactivated fetal bovine serum (Himedia Laboratories Pvt Ltd, Mumbai, India) and 1% antibiotic (Pen strep: A001), Himedia Laboratories Pvt Ltd, Mumbai, India. Cells were grown in a humidified environment with 5% CO2 at 37 °C. The experiment was performed using the yellow dye MTT [3-(4,5-dimethylthiazol-2-yl)-2, 5-diphenyltetrazolium bromide].
The MTT assay protocol was used to determine the IC50 values of the final compounds against different types of cancer cell lines and their selectivity over normal human cell lines. Dilutions of various concentrations were made from the compounds' DMSO stock solutions in the appropriate media. With a control solution of less than 1% DMSO in the appropriate media, dilutions from 200 μM to 0.781 μM concentrations were prepared using the serial dilution method. Cells were subcultured in their respective complete media according to the ATCC protocol before being seeded on a sterile 96-well plate with around 100 μL per well and a cell density of about 1 × 10^4 cells per well and incubated overnight. The medium was aspirated the following day, and adherent cells were treated with the respective concentrations 200 μM to 0.781 μM. The cells were then cultured for 48 hours in presence of compounds in the growth medium. The medium was aspirated post-treatment, and 100 μL of a 5 mg mL^−1 MTT solution in phenol red-free media was added. This mixture was then incubated for around 3 hours to check for the production of formazan crystals. The MTT solution was withdrawn, and 150 μL of DMSO was added to the wells to dissolve the generated crystals. The absorbance was measured at 570 nm and 650 nm. The percent cell viability was calculated for the IC50 values using GraphPad Prism™ version 8.0.1, and the results were shown as a dose–response curve.

`COc1ccc(-c2noc(-c3cccs3)c2C(F)(F)F)cc1OC` [Compound 2g, 3-(3,4-dimethoxyphenyl)-5-(thiophen-2-yl)-4-(trifluoromethyl)isoxazole] was tested, and the “nuclear morphology by DAPI and AO staining” value (MCF-7 cells [1]) was “notable variation in cell shape and morphology”, the “total apoptotic percentage (Q2 and Q4)” value (MCF-7 cells [2]) was 55.3 ± 0.9% and the IC50 (MCF-7; Homo sapiens, MCF7, 48 h) was 2.64 µM. The “times more active than non-trifluoromethylated analogue 14” value (MCF-7; MCF-7 IC50 compared) was ~8 times, the IC50 (MCF-7) was 2.63 ± 0.15 µM and the “selectivity for MCF-7 cells over HEK-293” value (MCF-7; ratio of IC50 values) was 30.8 fold.
